Assay results taken from the supplement of paper PMC10627819.

Tests used:
B. subtilis 168 = test: fitness (endpoint OD595 vs no drug) (fraction); higher = more growth
How it was run: (§1)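 Fitness compares growth at the stationary-phase transition with the robust mean of no-drug control wells, as a ratio of optical densities. The ratio is capped at 1. Wells of 384-well plates held 30 µl, or 55 µl for S. pneumoniae, inoculated at OD595 0.01. Readings at OD595 every 30 min for 14 h at 37 °C were corrected against the first reading.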

S. pneumoniae D39V = test: as above
How it was run: as §1
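Note: OD595 on entry to stationary phase over no-drug wells; at most 1.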

O=C(O)[C@H]1/C(=C/CO)O[C@@H]2CC(=O)N21 [Clavulanic acid] + CO/N=C(\C(=O)N[C@@H]1C(=O)N2C(C(=O)O)=C(COC(N)=O)CS[C@H]12)c1ccco1 [Cefuroxime]
fitness, B. subtilis 168
Conditions | first compound 1.5 µg/mL | first compound 3 µg/mL | first compound 6 µg/mL
partner 0.04875 µg/mL | 0.661 | 0.626 | 0.562
partner 0.0975 µg/mL | 0.651 | 0.607 | 0.542
partner 0.195 µg/mL | – | 0.345 | 0.359

fitness, B. subtilis 168, one replicate
Conditions | partner 0.39 µg/mL | partner 0.78 µg/mL | partner 1.562 µg/mL | partner 3.125 µg/mL | partner 6.25 µg/mL
first compound 1.5 µg/mL | 0.288 | 0.232 | 0.353 | 0.235 | 0.202
first compound 3 µg/mL | 0.0208 | 0.0871 | 0.319 | 0.276 | 0.238
first compound 6 µg/mL | 0.216 | 0.172 | 0.241 | 0.18 | 0.142

O=C(O)[C@H]1/C(=C/CO)O[C@@H]2CC(=O)N21 [Clavulanic acid] + CO[C@@H]1[C@@H](OC(N)=O)[C@@H](O)[C@H](Oc2ccc3c(O)c(NC(=O)c4ccc(O)c(CC=C(C)C)c4)c(=O)oc3c2C)OC1(C)C [Novobiocin]
fitness, B. subtilis 168
Conditions | first compound 1.5 µg/mL | first compound 3 µg/mL | first compound 6 µg/mL
partner 0.0125 µg/mL | 0.932 | 0.895 | 0.759
partner 0.025 µg/mL | 0.935 | 0.89 | 0.727
partner 0.05 µg/mL | 0.951 | 0.914 | 0.798

fitness, B. subtilis 168, one replicate
Conditions | partner 0.1 µg/mL | partner 0.125 µg/mL | partner 0.2 µg/mL | partner 0.25 µg/mL | partner 0.5 µg/mL
first compound 1.5 µg/mL | 0.893 | 0.827 | 0.975 | 0.841 | 0.511
first compound 3 µg/mL | 0.937 | 0.815 | 0.989 | 0.774 | 0.385
first compound 6 µg/mL | 0.827 | 0.775 | 0.796 | 0.726 | 0.209

O=C(O)[C@H]1/C(=C/CO)O[C@@H]2CC(=O)N21 [Clavulanic acid] + CO[C@H]1/C=C/O[C@@]2(C)Oc3c(C)c(O)c4c(O)c(c(/C=N/N5CCN(C)CC5)c(O)c4c3C2=O)NC(=O)/C(C)=C\C=C\[C@H](C)[C@H](O)[C@@H](C)[C@@H](O)[C@@H](C)[C@H](OC(C)=O)[C@@H]1C [Rifampicin]
fitness, S. pneumoniae D39V
Conditions | first compound 0.5 µg/mL | first compound 1 µg/mL | first compound 2 µg/mL
partner 0.025 µg/mL | ≥ 1 | 0.919 | –
partner 0.1 µg/mL | – | 0.421 | 0.239

S. pneumoniae D39V, partner 0.2 µg/mL, one replicate
Conditions | fitness
first compound 0.5 µg/mL | 0
first compound 1 µg/mL | 0
first compound 2 µg/mL | 0

O=C(O)[C@H]1/C(=C/CO)O[C@@H]2CC(=O)N21 [Clavulanic acid] + COc1cc(Cc2cnc(N)nc2N)cc(OC)c1OC [Trimethoprim]
fitness, B. subtilis 168, one replicate
Conditions | partner 0.1 µg/mL | partner 0.2 µg/mL | partner 0.4 µg/mL | partner 1 µg/mL | partner 2 µg/mL
first compound 1.5 µg/mL | 0.89 | 0.757 | 0.559 | 0.507 | 0.392
first compound 3 µg/mL | 0.853 | 0.693 | 0.537 | 0.455 | 0.388
first compound 6 µg/mL | 0.728 | 0.687 | 0.482 | 0.421 | 0.273

fitness, B. subtilis 168
Conditions | first compound 1.5 µg/mL | first compound 3 µg/mL | first compound 6 µg/mL
partner 0.125 µg/mL | 0.647 | 0.618 | 0.55
partner 0.25 µg/mL | 0.511 | – | –
partner 0.5 µg/mL | 0.505 | 0.494 | 0.457

O=C(O)[C@H]1/C(=C/CO)O[C@@H]2CC(=O)N21 [Clavulanic acid] + C[C@@H](O)[C@H]1C(=O)N2C(C(=O)O)=C(SCCNC=N)C[C@H]12 [Imipenem]
fitness, S. pneumoniae D39V
Conditions | partner 0.005 µg/mL | partner 0.0065 µg/mL | partner 0.01 µg/mL | partner 0.013 µg/mL | partner 0.02 µg/mL | partner 0.026 µg/mL
first compound 0.5 µg/mL | 0.976 | 0.974 | 0.987 | 0.968 | 0.935 | 0.883
first compound 1 µg/mL | 0.887 | 0.92 | 0.899 | 0.891 | 0.888 | 0.892
first compound 2 µg/mL | 0.737 | 0.82 | 0.724 | 0.791 | 0.655 | 0.789

O=C(O)[C@H]1/C(=C/CO)O[C@@H]2CC(=O)N21 [Clavulanic acid] + C[C@H]1COc2c(N3CCN(C)CC3)c(F)cc3c(=O)c(C(=O)O)cn1c23 [Levofloxacin]
Conditions | fitness
B. subtilis 168, first compound 1.5 µg/mL, partner 0.002 µg/mL | 0.836
B. subtilis 168, first compound 1.5 µg/mL, partner 0.0039 µg/mL | 0.821
B. subtilis 168, first compound 1.5 µg/mL, partner 0.0312 µg/mL | 0.0412
B. subtilis 168, first compound 1.5 µg/mL, partner 0.0625 µg/mL | 0.0486
B. subtilis 168, first compound 1.5 µg/mL, partner 0.125 µg/mL | 0.0536
B. subtilis 168, first compound 3 µg/mL, partner 0.002 µg/mL | 0.829
B. subtilis 168, first compound 3 µg/mL, partner 0.0039 µg/mL | 0.81
B. subtilis 168, first compound 3 µg/mL, partner 0.0312 µg/mL | 0.0294
B. subtilis 168, first compound 3 µg/mL, partner 0.0625 µg/mL | 0.0351
B. subtilis 168, first compound 3 µg/mL, partner 0.125 µg/mL | 0.0411
B. subtilis 168, first compound 6 µg/mL, partner 0.002 µg/mL | 0.734
B. subtilis 168, first compound 6 µg/mL, partner 0.0039 µg/mL | 0.72
B. subtilis 168, first compound 6 µg/mL, partner 0.0312 µg/mL | 0.0384
B. subtilis 168, first compound 6 µg/mL, partner 0.0625 µg/mL | 0.0352
B. subtilis 168, first compound 6 µg/mL, partner 0.125 µg/mL | 0.0346
S. pneumoniae D39V, first compound 0.5 µg/mL, partner 0.1725 µg/mL | 0.948
S. pneumoniae D39V, first compound 0.5 µg/mL, partner 0.2 µg/mL | 0.914
S. pneumoniae D39V, first compound 0.5 µg/mL, partner 0.345 µg/mL | 0.881
S. pneumoniae D39V, first compound 0.5 µg/mL, partner 0.4 µg/mL | 0.681
S. pneumoniae D39V, first compound 0.5 µg/mL, partner 0.69 µg/mL | 0.61
S. pneumoniae D39V, first compound 0.5 µg/mL, partner 0.8 µg/mL | 0.134
S. pneumoniae D39V, first compound 1 µg/mL, partner 0.1725 µg/mL | 0.927
S. pneumoniae D39V, first compound 1 µg/mL, partner 0.2 µg/mL | 0.805
S. pneumoniae D39V, first compound 1 µg/mL, partner 0.345 µg/mL | 0.842
S. pneumoniae D39V, first compound 1 µg/mL, partner 0.4 µg/mL | 0.599
S. pneumoniae D39V, first compound 1 µg/mL, partner 0.8 µg/mL | 0.242
S. pneumoniae D39V, first compound 2 µg/mL, partner 0.1725 µg/mL | 0.841
S. pneumoniae D39V, first compound 2 µg/mL, partner 0.2 µg/mL | 0.623
S. pneumoniae D39V, first compound 2 µg/mL, partner 0.345 µg/mL | 0.735
S. pneumoniae D39V, first compound 2 µg/mL, partner 0.4 µg/mL | 0.431
S. pneumoniae D39V, first compound 2 µg/mL, partner 0.69 µg/mL | 0.423
S. pneumoniae D39V, first compound 2 µg/mL, partner 0.8 µg/mL | 0.103

fitness, B. subtilis 168, one replicate
Conditions | first compound 1.5 µg/mL | first compound 3 µg/mL | first compound 6 µg/mL
partner 0.001 µg/mL | 0.908 | 0.852 | 0.776
partner 0.0078 µg/mL | 0.919 | 0.872 | 0.82
